Literature values as cited in patent US20170027865A1, “Dry Pharmaceutical Compositions for Topical Delivery of Oral Medications, Nasal Delivery and to Treat Ear Disorders” (CMPD LICENSING LLC, priority 2013, published 2017).

Experiments:
Bacteroides fragilis = conditions: Gram: anaer
Clostridium difficile = conditions: Gram: anaer
Clostridium perfringens = conditions: Clostridium perfringens; Gram: anaer
Chlamydia pneumoniae = conditions: Gram: n/a
Chlamydia psittaci = conditions: Chlamydia psittaci; Gram: n/a
Chlamydia trachomatis = conditions: Gram: n/a
Mycoplasma pneumoniae = conditions: Gram: n/a
Acinetobacter baumannii = conditions: Gram: neg
[1] = test system: Acinetobacter calcoaceticus; conditions: Gram: neg
Acinetobacter lwoffii = conditions: Gram: neg
Bartonella bacilliformis = conditions: Gram: neg
Bordetella pertussis = conditions: Gram: neg
Brucella species = conditions: Brucella species; Gram: neg
Campylobacter jejuni = conditions: Gram: neg
Citrobacter diversus = conditions: Gram: neg
Citrobacter freundii = conditions: Gram: neg
Enterobacter aerogenes = conditions: Gram: neg
Enterobacter cloacae = conditions: Gram: neg
Enterobacter sakazakii = conditions: Gram: neg
Escherichia coli = conditions: Gram: neg
Francisella tularensis = conditions: Francisella tularensis; Gram: neg
Haemophilus influenzae = conditions: Gram: neg
[2] = test system: Klebsiella (Calymmatobacterium) granulomatis; conditions: Gram: neg
Klebsiella oxytoca = conditions: Gram: neg
Klebsiella pneumoniae = conditions: Gram: neg
Legionella pneumophila = conditions: Legionella pneumophila; Gram: neg
Moraxella catarrhalis = conditions: Gram: neg
Morganella morganii = conditions: Gram: neg
Neisseria meningitidis = conditions: Gram: neg
Proteus mirabilis = conditions: Gram: neg
Proteus vulgaris = conditions: Gram: neg
Providencia rettgeri = conditions: Gram: neg
Providencia stuartii = conditions: Gram: neg
Pseudomonas aeruginosa = conditions: Gram: neg
Pseudomonas fluorescens = conditions: Gram: neg
Rickettsiae = conditions: Rickettsiae; Gram: neg
Serratia marcescens = conditions: Gram: neg
Vibrio cholerae = conditions: Gram: neg
Corynebacterium jeikeium = conditions: Gram: pos
Enterococcus faecalis = conditions: Gram: pos
Enterococcus faecium = conditions: Gram: pos
[3] = test system: Methicillin Resistant Staph aureus (MRSA); conditions: Gram: pos
[4] = test system: Staphylococcus aureus (MSSA); conditions: Gram: pos
[5] = test system: Staphylococcus epidermidis; conditions: Gram: pos
Streptococcus agalactiae = conditions: Gram: pos
Streptococcus pneumoniae = conditions: Gram: pos
Streptococcus pyogenes = conditions: Gram: pos
Haemophilus ducreyi = conditions: Gram: neg
Neisseria gonorrhoeae = conditions: Gram: neg
Shigella boydii = conditions: Gram: neg
Shigella dysenteriae = conditions: Gram: neg
Shigella flexneri = conditions: Gram: neg
Shigella sonnei = conditions: Gram: neg
Yersinia pestis = conditions: Yersinia pestis; Gram: neg
[6] = test system: Corynebacterium urealyticum; conditions: Gram: pos
Diphtheroids = conditions: Gram: pos
Peptostreptococcus = conditions: Gram: pos
[7] = test system: Viridans group streptococci; conditions: Gram: pos

Question: Which Expected coverage (Bacteroides fragilis) does the source give for `CC[C@H]1OC(=O)[C@H](C)[C@@H](O[C@H]2C[C@@](C)(OC)[C@@H](O)[C@H](C)O2)[C@H](C)[C@@H](O[C@@H]2O[C@H](C)C[C@H](N(C)C)[C@H]2O)[C@](C)(O)C[C@@H](C)CN(C)[C@H](C)[C@@H](O)[C@]1(C)O` [Azithromycin, azithromycin] here?
Answer: no

Question: What about the Expected coverage (Clostridium difficile) of the same compound?
Answer: no

Question: And the Expected coverage (Clostridium perfringens)?
Answer: no

Question: And the Expected coverage (Chlamydia pneumoniae)?
Answer: yes

Question: What about the Expected coverage (Chlamydia psittaci) of the same compound?
Answer: yes

Question: What about the Expected coverage (Chlamydia trachomatis) of the same compound?
Answer: yes

Question: What about the Expected coverage (Mycoplasma pneumoniae) of the same compound?
Answer: yes

Question: And the Expected coverage (Acinetobacter baumannii)?
Answer: no

Question: And the Expected coverage [1]?
Answer: no

Question: What about the Expected coverage (Acinetobacter lwoffii) of the same compound?
Answer: no

Question: And the Expected coverage (Bartonella bacilliformis)?
Answer: yes

Question: What about the Expected coverage (Bordetella pertussis) of the same compound?
Answer: yes

Question: What about the Expected coverage (Brucella species) of the same compound?
Answer: no

Question: And the Expected coverage (Campylobacter jejuni)?
Answer: yes

Question: What about the Expected coverage (Citrobacter diversus) of the same compound?
Answer: no

Question: What about the Expected coverage (Citrobacter freundii) of the same compound?
Answer: no

Question: And the Expected coverage (Enterobacter aerogenes)?
Answer: no

Question: And the Expected coverage (Enterobacter cloacae)?
Answer: no

Question: What about the Expected coverage (Enterobacter sakazakii) of the same compound?
Answer: no

Question: And the Expected coverage (Escherichia coli)?
Answer: no

Question: And the Expected coverage (Francisella tularensis)?
Answer: no

Question: What about the Expected coverage (Haemophilus influenzae) of the same compound?
Answer: yes

Question: And the Expected coverage [2]?
Answer: no

Question: What about the Expected coverage (Klebsiella oxytoca) of the same compound?
Answer: no

Question: And the Expected coverage (Klebsiella pneumoniae)?
Answer: no

Question: And the Expected coverage (Legionella pneumophila)?
Answer: yes

Question: And the Expected coverage (Moraxella catarrhalis)?
Answer: yes

Question: What about the Expected coverage (Morganella morganii) of the same compound?
Answer: no

Question: What about the Expected coverage (Neisseria meningitidis) of the same compound?
Answer: yes

Question: What about the Expected coverage (Proteus mirabilis) of the same compound?
Answer: no

Question: What about the Expected coverage (Proteus vulgaris) of the same compound?
Answer: no

Question: And the Expected coverage (Providencia rettgeri)?
Answer: no

Question: And the Expected coverage (Providencia stuartii)?
Answer: no

Question: What about the Expected coverage (Pseudomonas aeruginosa) of the same compound?
Answer: no

Question: And the Expected coverage (Pseudomonas fluorescens)?
Answer: no

Question: And the Expected coverage (Rickettsiae)?
Answer: yes

Question: And the Expected coverage (Serratia marcescens)?
Answer: no

Question: What about the Expected coverage (Vibrio cholerae) of the same compound?
Answer: yes

Question: What about the Expected coverage (Corynebacterium jeikeium) of the same compound?
Answer: no

Question: And the Expected coverage (Enterococcus faecalis)?
Answer: no

Question: What about the Expected coverage (Enterococcus faecium) of the same compound?
Answer: no

Question: What about the Expected coverage [3] of the same compound?
Answer: no

Question: And the Expected coverage [4]?
Answer: yes

Question: What about the Expected coverage [5] of the same compound?
Answer: yes

Question: What about the Expected coverage (Streptococcus agalactiae) of the same compound?
Answer: yes

Question: And the Expected coverage (Streptococcus pneumoniae)?
Answer: yes

Question: And the Expected coverage (Streptococcus pyogenes)?
Answer: yes

Question: Which Expected coverage (Candida species) does the source give for `C[C@@H]1[C@H](O)[C@@H](C)/C=C/C=C/CC/C=C/C=C/C=C/C=C/C(O[C@H]2O[C@H](C)[C@@H](O)[C@H](N)[C@@H]2O)CC2O[C@](O)(CC(O)C(O)CCC(O)CC(O)CC(O)CC(=O)O[C@H]1C)CC(O)C2C(=O)O` (stereo partly drawn) [Nystatin, nystatin] here?
Answer: yes

Question: Which Expected coverage (Bacteroides fragilis) does the source give for `NC[C@H]1O[C@H](O[C@H]2[C@H](O)[C@@H](O[C@H]3O[C@H](CO)[C@@H](O)[C@H](N)[C@H]3O)[C@H](N)C[C@@H]2N)[C@H](N)C[C@@H]1O` [Tobramycin, tobramycin] here?
Answer: no

Question: And the Expected coverage (Clostridium difficile)?
Answer: no

Question: And the Expected coverage (Clostridium perfringens)?
Answer: no

Question: What about the Expected coverage (Chlamydia pneumoniae) of the same compound?
Answer: no

Question: What about the Expected coverage (Chlamydia psittaci) of the same compound?
Answer: no

Question: What about the Expected coverage (Chlamydia trachomatis) of the same compound?
Answer: no

Question: And the Expected coverage (Mycoplasma pneumoniae)?
Answer: no

Question: And the Expected coverage (Acinetobacter baumannii)?
Answer: no

Question: And the Expected coverage [1]?
Answer: no

Question: And the Expected coverage (Acinetobacter lwoffii)?
Answer: no

Question: And the Expected coverage (Bordetella pertussis)?
Answer: no

Question: And the Expected coverage (Campylobacter jejuni)?
Answer: yes

Question: What about the Expected coverage (Citrobacter diversus) of the same compound?
Answer: yes

Question: And the Expected coverage (Citrobacter freundii)?
Answer: yes

Question: What about the Expected coverage (Enterobacter aerogenes) of the same compound?
Answer: yes

Question: What about the Expected coverage (Enterobacter cloacae) of the same compound?
Answer: yes

Question: And the Expected coverage (Enterobacter sakazakii)?
Answer: yes

Question: And the Expected coverage (Escherichia coli)?
Answer: yes

Question: And the Expected coverage (Haemophilus ducreyi)?
Answer: yes

Question: What about the Expected coverage (Haemophilus influenzae) of the same compound?
Answer: yes

Question: What about the Expected coverage [2] of the same compound?
Answer: yes

Question: What about the Expected coverage (Klebsiella oxytoca) of the same compound?
Answer: yes

Question: And the Expected coverage (Klebsiella pneumoniae)?
Answer: yes

Question: What about the Expected coverage (Legionella pneumophila) of the same compound?
Answer: no

Question: And the Expected coverage (Moraxella catarrhalis)?
Answer: yes

Question: And the Expected coverage (Neisseria gonorrhoeae)?
Answer: no

Question: And the Expected coverage (Neisseria meningitidis)?
Answer: no

Question: And the Expected coverage (Proteus mirabilis)?
Answer: yes

Question: And the Expected coverage (Proteus vulgaris)?
Answer: yes

Question: And the Expected coverage (Pseudomonas aeruginosa)?
Answer: yes

Question: What about the Expected coverage (Pseudomonas fluorescens) of the same compound?
Answer: yes

Question: And the Expected coverage (Serratia marcescens)?
Answer: yes

Question: And the Expected coverage (Shigella boydii)?
Answer: yes

Question: And the Expected coverage (Shigella dysenteriae)?
Answer: yes

Question: And the Expected coverage (Shigella flexneri)?
Answer: yes

Question: And the Expected coverage (Shigella sonnei)?
Answer: yes

Question: And the Expected coverage (Vibrio cholerae)?
Answer: no

Question: And the Expected coverage (Yersinia pestis)?
Answer: yes

Question: And the Expected coverage (Corynebacterium jeikeium)?
Answer: no

Question: What about the Expected coverage [6] of the same compound?
Answer: no

Question: What about the Expected coverage (Diphtheroids) of the same compound?
Answer: no

Question: And the Expected coverage (Enterococcus faecalis)?
Answer: no

Question: And the Expected coverage (Enterococcus faecium)?
Answer: no

Question: And the Expected coverage [3]?
Answer: no

Question: And the Expected coverage (Peptostreptococcus)?
Answer: no

Question: What about the Expected coverage [4] of the same compound?
Answer: no

Question: What about the Expected coverage [5] of the same compound?
Answer: no

Question: And the Expected coverage (Streptococcus agalactiae)?
Answer: no

Question: What about the Expected coverage (Streptococcus pneumoniae) of the same compound?
Answer: no

Question: And the Expected coverage (Streptococcus pyogenes)?
Answer: no

Question: And the Expected coverage [7]?
Answer: no
